According to ChEMBL document CHEMBL2203051, “Synthesis of new opioid derivatives with a propellane skeleton and their pharmacologies: part 3, novel propellane derivatives with pentacyclic skeletons” (Bioorg Med Chem Lett, 2012):

Legend:
[1] = species: Mus musculus; experiment: Selectivity ratio of Ki for delta opioid receptor mouse whole brain without cerebellum to Ki for kappa opioid receptor in mouse whole brain without cerebellum
[2] = molecular target: Kappa-type opioid receptor (Mus musculus, UniProt P33534); experiment: Displacement of [3H]U-69,593 from kappa opioid receptor in mouse whole brain without cerebellum
[3] = Selectivity ratio of Ki for mu opioid receptor in […] to Ki for kappa opioid receptor in mouse whole brain without cerebellum
[4] = molecular target: Delta-type opioid receptor (Mus musculus, UniProt P32300); experiment: Displacement of [3H][…] from delta opioid receptor in mouse whole brain without cerebellum
[5] = molecular target: Mu-type opioid receptor (Cavia porcellus, UniProt P97266); experiment: Displacement of [3H]DAMGO from mu opioid receptor in […]
Chain of Mu-type opioid receptor (P97266 whole entry): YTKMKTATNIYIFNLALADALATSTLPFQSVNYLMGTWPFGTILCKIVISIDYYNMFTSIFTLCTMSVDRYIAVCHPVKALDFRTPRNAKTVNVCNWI

Chain of Delta-type opioid receptor (P32300 whole entry): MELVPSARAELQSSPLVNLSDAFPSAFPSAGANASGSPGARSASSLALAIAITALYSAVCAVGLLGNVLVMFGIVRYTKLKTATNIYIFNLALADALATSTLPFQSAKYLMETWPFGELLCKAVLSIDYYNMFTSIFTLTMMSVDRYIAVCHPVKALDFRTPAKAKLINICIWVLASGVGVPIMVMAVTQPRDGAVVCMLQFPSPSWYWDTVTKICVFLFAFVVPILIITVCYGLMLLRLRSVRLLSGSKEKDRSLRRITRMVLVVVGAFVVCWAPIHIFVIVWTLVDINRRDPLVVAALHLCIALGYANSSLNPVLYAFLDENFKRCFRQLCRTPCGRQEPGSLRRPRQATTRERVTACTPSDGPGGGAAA
Chain of Kappa-type opioid receptor (P33534 whole entry): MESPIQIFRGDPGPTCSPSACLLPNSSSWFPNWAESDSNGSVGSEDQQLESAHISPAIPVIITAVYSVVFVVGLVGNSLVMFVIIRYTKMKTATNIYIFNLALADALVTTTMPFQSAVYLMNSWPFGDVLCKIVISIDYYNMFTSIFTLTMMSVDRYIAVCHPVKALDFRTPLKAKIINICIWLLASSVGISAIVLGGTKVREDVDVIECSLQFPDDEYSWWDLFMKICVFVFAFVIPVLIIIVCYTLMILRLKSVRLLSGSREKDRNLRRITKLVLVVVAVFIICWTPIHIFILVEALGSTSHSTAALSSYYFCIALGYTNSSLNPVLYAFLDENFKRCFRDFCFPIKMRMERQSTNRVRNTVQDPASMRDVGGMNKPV

Structure (SMILES): O=C1CC23CCN(CC4CC4)C4C[C@@H](O)C1CC42Cc1ccc(O)cc13 (stereo not given in full)
- Ratio Ki [1]: 8.9
- Ki [2]: 7.63 nM
- Ratio Ki [3]: 1.72
- Ki [4]: 67.9 nM
- Ki [5]: 13.1 nM

Structure (SMILES): O=C1CC2N(CC3CC3)CCC34CC(=O)C1CC23Cc1ccc(O)cc14 (stereo not given)
- Ratio Ki [1]: 7.26
- Ki [2]: 56.5 nM
- Ratio Ki [3]: 3.31
- Ki [4]: 410 nM
- Ki [5]: 187 nM

Structure (SMILES): O=C1CC23CCN(CC4CC4)C4C[C@H](O)C1CC42Cc1ccc(O)cc13 (stereo not given in full)
- Ratio Ki [1]: 8.72
- Ki [2]: 16.7 nM
- Ratio Ki [3]: 4.22
- Ki [4]: 146 nM
- Ki [5]: 70.7 nM

Structure (SMILES): O=C1CC23CCN(CC4CC4)C4CCC1CC42Cc1ccc(O)cc13 (stereo not given)
- Ratio Ki [1]: 52
- Ki [2]: 0.84 nM
- Ratio Ki [3]: 3.82
- Ki [4]: 43.6 nM
- Ki [5]: 3.21 nM

Structure (SMILES): O=C1CC23CCN(CC4CC4)C4C=CC1CC42Cc1ccc(O)cc13 (stereo not given)
- Ratio Ki [1]: 27.2
- Ki [2]: 1.92 nM
- Ratio Ki [3]: 9.17
- Ki [4]: 52.2 nM
- Ki [5]: 17.6 nM
